Key:
DC2.4 cells = assay: In vitro transfection of cells with eGFP-mRNA lipid nanoparticle (LNP preparation), fluorescence imaging and flow cytometry; format: cell-based, mouse; settings: eGFP positivity rate, DC2.4 cells, 200 ng of mRNA per well, after 24 hours
Source text: (§1) This example used mouse bone marrow-derived dendritic cells DC2.4 (purchased from Millipore) as the validation cell line for a lipid nanoparticle transfection experiment. DC2.4 cells adhered to the wall for growth. All operational steps of cell culture strictly followed the prescribed procedures, using sterile reagents for aseptic operations under a sterile workbench. The main operational steps involved were as follows: • 1) Cell recovery: the preserved cell cryopreservation solution was removed from the -80 °C freezer and immediately placed in a 37 °C water bath for rapid and continuous shaking, allowing it to completely melt within one minute. Fresh culture medium was added to a 15 mL centrifuge tube in advance, and the cell fluid was added to the centrifuge tube in a biosafety cabinet. A centrifuge tube of the same mass was taken, placed symmetrically in the centrifuge, and centrifuged at low speed for 5 minutes at 1200 rpm. After centrifugation, the upper clear liquid was removed, and an appropriate amount of culture medium was slowly added along the tube wall. After the cells were gently blown and dispersed evenly, the cell suspension was drawn and added to the prepared culture bottle. The state and distribution of cells in the early stage of recovery were observed under a microscope. The culture bottle was incubated in a 5% CO2 incubator at 37 °C, and the recovery time was recorded. • 2) Cell passaging: Under a microscope, if the cell density in the field of view reached 80%-90%, cells could be passaged and cultured. Adherent cells required trypsin digestion. In order to avoid residual serum in the culture medium reducing trypsin activity, the original culture medium was removed, and DPBS solution was added to wash once. After suctioning out the DPBS solution, trypsin was added to degrade the protein at the intercellular junction, thereby separating the cells and facilitating further cultivation. The mixture was gently shaken well and placed into the incubator for digestion for 2-3 minutes. After digestion was complete, an appropriate amount of culture medium was immediately added to the original culture dish to terminate digestion. Finally, a pipette was used to carefully blow off the cells and blow them until they were evenly dispersed, and then the cells were inoculated and subcultured in a certain proportion according to experimental requirements.
(§2) Transfection of DC2.4 cells • 1) DC2.4 cell recovery: the frozen DC2.4 cells were taken out from the -80 °C refrigerator and immediately put into a 37 °C water bath for rapid thawing. After melting, they were added to the preheated culture medium, and centrifuged at 1200 rpm for 5 minutes. The supernatant was discarded, and an appropriate amount of DMEM medium containing 10% FBS was added to resuspend the recovered DC2.4 cells, which were placed in a 37 °C, 5% CO2 incubator for activation culture. • 2) According to experimental requirements, DC2.4 cells were transfected into 24 well plates one day in advance. By counting cells, the number and viability of cells were recorded, and a cell suspension with 2 × 10^5 cells per well were taken. Then, a certain volume of DMEM medium containing 10% FBS was added and mixed evenly, wherein 1 mL was added per well for subsequent transfection experiments. • 3) After 24 hours, the culture medium was gently aspirated with a pipette 30 minutes in advance, and each well was washed with 1 mL of DPBS and aspirated. […] The mixture was placed in a 37 °C, 5% CO2 incubator for activation cultivation. • 6) After 24 hours, cell viability (%), eGFP positivity rate (%), and mean fluorescence intensity data were obtained through cell fluorescence imaging and flow cytometry.

[1] = as above; format: cell-based, mouse; settings: mouse, dc2.4 cells, 200 ng of mRNA per well, after 24 hours; read-out: Cell viability, %
Source text: as §1, §2

[2] = Size and polydispersity index (PDI) of the lipid nanoparticle by dynamic light scattering; format: physicochemical; settings: LNP encapsulating eGFP mRNA, ionizable lipid/DOPE/cholesterol/DMG-PEG2000 50/10/48.25/1.25 mol%, N/P 12; for Particle size: in nm (unit assumed)
Method: (§3) The ionizable lipid compound and positive control 1 from Example I were dissolved in ethanol at a molar ratio of 50:10:48.25:1.25 with DOPE, cholesterol, and DMG-PEG2000 (all purchased from A.V.T (Shanghai) Pharmaceutical Co., Ltd.) to prepare an ethanol lipid solution. The enhanced green fluorescent protein (eGFP) mRNA was diluted in 20 mM citrate buffer (pH=6.1) to obtain an mRNA aqueous solution. By using a microfluidic device (Micro&Nano Biologics Co., Ltd., model: INano ™ L) mix ethanol lipid solution and mRNA aqueous solution in a volume ratio of 1:3 to prepare a lipid nanoparticle with a total lipid to mRNA N/P ratio of 12. The medium was replaced by ultrafiltration, ethanol was removed and volumed with DPBS. Finally, the lipid nanoparticle was filtered through a 0.2 µm sterile filter to obtain an LNP preparation encapsulating eGFP mRNA using ionizable lipid/DOPE/cholesterol/DMG-PEG2000 (50/10/48.25/1.25 mol%), with an mRNA content of 0.002 mg/ml-0.5 mg/mL.
(§4) Using Malvern Zetasizer Nano ZS (Malvern UK), the size and polydispersity index (PDI) of the lipid nanoparticle were determined by dynamic light scattering in 173° backscatter detection mode, and the encapsulation efficiency was measured by Ribogreen method.

[3] = Encapsulation efficiency of the lipid nanoparticle (eGFP mRNA) by Ribogreen method; format: physicochemical; settings: LNP encapsulating eGFP mRNA, ionizable lipid/DOPE/cholesterol/DMG-PEG2000 50/10/48.25/1.25 mol%, N/P 12
Method: as §3, §4

Row | PDI [2] | Encapsulation rate, % [3] [%] | Particle size [2] | SMILES | Positive rate, % (DC2.4 cells) [%] | viability at 24 h [1] [%]
1 | 0.13 | 92.30 | – | CCCCCC/C=C\COC(=O)CCCCCCCN(CCO)CCCN(CCCCCCCC(=O)OC/C=C\CCCCCC)CCCCCCCC(=O)OC/C=C\CCCCCC [Example 6, Di((Z)-non-2-en-1-yl)8,8'-((3-((2-hydroxyethyl)(8-(((Z)-non-2-en-1-yl)oxo)-8-oxooctyl)amino)propyl)azanediyl)dioctanoate] | 85.29 | 80.5
2 | 0.09 | 86.64 | – | CC/C=C\C/C=C\CCCOC(=O)CCCCCCCN(CCO)CCCN(CCCCCCCC(=O)OCCC/C=C\C/C=C\CC)CCCCCCCC(=O)OCCC/C=C\C/C=C\CC [Example 7, Di((4Z,7Z)-dec-4,7-dien-1-yl)8,8'-((3-((8-(((4Z,7Z)-dec-4,7-dien-1-yl)oxo)-8-oxooctyl)(2-hydroxyethyl)amino)propyl)azanediyl)dioctanoate] | 75.68 | 76.9
3 | 0.21 | 80.59 | – | CC/C=C\CCCCCOC(=O)CCCCCCCN(CCO)CCCN(CCCCCCCC(=O)OCCCCC/C=C\CC)CCCCCCCC(=O)OCCCCC/C=C\CC [Example 8, Di((Z)-non-6-en-1-yl)8,8'-((3-((2-hydroxyethyl)(8-(((Z)-non-6-en-1-yl)oxo)-8-oxooctyl)amino)propyl)azanediyl)dioctanoate] | 82.12 | 63.2
4 | 0.22 | 78.69 | – | CCCCCCCCCOC(=O)CCCCCCCN(CCO)CCCN(CCCCCCCC(=O)OCCCCCCCCC)CCCCCCCC(=O)OCCCCCCCCC [Example 9, Dinonyl 8,8'-((3-((2-hydroxyethyl)(8-(nonoxy)-8-oxooctyl)amino)propyl)azanediyl)dioctanoate] | 83.84 | 55.6
5 | 0.14 | 89.02 | 90.73 | CC/C=C\COC(=O)CCCCCCCN(CCO)CCCN(CCCCCCCC(=O)OC/C=C\CC)CCCCCCCC(=O)OC/C=C\CC [Example 10, Di((Z)-pent-2-en-1-yl)8,8'-((3-((2-hydroxyethyl)(8-oxo-8-(((Z)-pent-2-en-1-yl)oxo)octyl)amino)propyl)azanediyl)dioctanoate] | 95.39 | 95
6 | 0.21 | 96.34 | – | CCCCCCCCCCCCCOC(=O)CCCCCCCN(CCO)CCCN(CCCCCCCC(=O)OCCCCCCCCCCCCC)CCCCCCCC(=O)OCCCCCCCCCCCCC [Example 13, Ditridecyl 8,8'-((3-((2-hydroxyethyl)(8-oxo-8-(tridecyloxy)octyl)amino)propyl)azanediyl)dioctanoate] | 93.23 | 91.3
7 | 0.21 | 97.23 | 98.45 | CCCCCCCCCCCOC(=O)CCCCCCCCCN(CCO)CCCN(CCCCCCCCCC(=O)OCCCCCCCCCCC)CCCCCCCCCC(=O)OCCCCCCCCCCC [Example 14, Diundecyl 10,10'-((3-((2-hydroxyethyl)(10-oxo-10-(undecyloxy)decyl)amino)propyl)azanediyl)dicaprate] | 95.61 | 97.9
8 | 0.20 | 90.28 | – | CCCCCC/C=C\COC(=O)CCCCCCCCCN(CCO)CCCN(CCCCCCCCCC(=O)OC/C=C\CCCCCC)CCCCCCCCCC(=O)OC/C=C\CCCCCC [Example 15, Di((Z)-non-2-en-1-yl)10,10'-((3-((2-hydroxyethyl)(10-(((Z)-non-2-en-1-yl)oxo)-10-oxodecyl)amino)propyl)azanediyl)dicaprate] | 91.39 | 84.4
9 | 0.18 | 86.73 | 99.65 | CCCCCC/C=C\COC(=O)CCCN(CCO)CCCN(CCCC(=O)OC/C=C\CCCCCC)CCCC(=O)OC/C=C\CCCCCC [Example 16, Di((Z)-non-2-en-1-yl)4,4'-((3-((2-hydroxyethyl)(4-(((Z)-non-2-en-1-yl)oxo)-4-oxobutyl)amino)propyl)azanediyl)dibutanoate] | 94.18 | 84.6
10 | 0.26 | 90.04 | – | CCC/C=C\COC(=O)CCCCCCCN(CCO)CCCN(CCCCCCCC(=O)OC/C=C\CCC)CCCCCCCC(=O)OC/C=C\CCC [Example 17, Di((Z)-hexyl-2-en-1-yl)8,8'-((3-((8-(((Z)-hexyl-2-en-1-yl)oxo)-8-oxooctyl)(2-hydroxyethyl)amino)propyl)azanediyl)dioctanoate] | 95.88 | 71.1
11 | 0.25 | 88.82 | – | CCCCCCCCCCCOC(=O)CCCCCCCN(CCCO)CCCN(CCCCCCCC(=O)OCCCCCCCCCCC)CCCCCCCC(=O)OCCCCCCCCCCC [Example 18, Diundecyl 8,8'-((3-((3-hydroxypropyl)(8-oxo-8-(undecyloxy)octyl)amino)propyl)azanediyl)dioctanoate] | 96.79 | 90.6
12 | 0.26 | 92.54 | – | CCCCCC/C=C\COC(=O)CCCCCCCN(CCCO)CCCN(CCCCCCCC(=O)OC/C=C\CCCCCC)CCCCCCCC(=O)OC/C=C\CCCCCC [Example 19, Di((Z)-non-2-en-1-yl)8,8'-((3-((3-hydroxypropyl)(8-(((Z)-non-2-en-1-yl)oxo)-8-oxooctyl)amino)propyl)azanediyl)dioctanoate] | 97.44 | 95.6
13 | 0.18 | 79.02 | 89.98 | CCCCCCCCCCCOC(=O)CCCCCCCN(CCCCO)CCCN(CCCCCCCC(=O)OCCCCCCCCCCC)CCCCCCCC(=O)OCCCCCCCCCCC [Example 20, Diundecyl 8,8'-((3-((4-hydroxybutyl)(8-oxo-8-(undecyloxy)octyl)amino)propyl)azanediyl)dioctanoate] | 93.27 | 83.8
14 | 0.11 | 78.46 | – | CCCCCCCCCCCCCCCOC(=O)CCCCCCCN(CCO)CCCN(CCCCCCCC(=O)OCCCCCCCCCCCCCCC)CCCCCCCC(=O)OCCCCCCCCCCCCCCC [Example 22, Dipentadecyl 8,8'-((3-((2-hydroxyethyl)(8-oxo-8-(pentadecyloxy)octyl)amino)propyl)azanediyl)dioctanoate] | 98.21 | 95.1
15 | 0.26 | 92.58 | – | CCCCCCCCCCCOC(=O)CCCCCCCCCCCN(CCO)CCCN(CCCCCCCCCCCC(=O)OCCCCCCCCCCC)CCCCCCCCCCCC(=O)OCCCCCCCCCCC [Example 23, Diundecyl 12,12'-((3-((2-hydroxyethyl)(12-oxo-12-(undecyloxy)dodecyl)amino)propyl)azanediyl)didodecanoate] | 92.1 | 87.5
